Measurements published in patent US9725441B2, “Histone demethylase inhibitors” (CELGENE QUANTICEL RESEARCH, INC., priority 2012, dated 2017).

Target: JMJD2C (Homo sapiens (Human), UniProt Q9H3R0)
Test: JMJD2C in vitro enzyme inhibition assay (TR-FRET)
Format: biochemical
Details: 0.3 nM JMJD2C, 300 nM H3K9me3-biotin peptide, 2 μM alpha-ketoglutaric acid
Description: This assay determines the ability of a test compound to inhibit Jarid1A, Jarid1B, and JMJD2C demethylase activity. Baculovirus expressed Jarid1A (GenBank Accession #NM_001042603, AA1-1090) was purchased from BPS Bioscience (Cat#50110). Baculovirus expressed Jarid1B (GenBank Accession #NM_006618, AA 2-751) was purchased from BPS Bioscience (Cat #50121) or custom made by MolecularThroughput. Baculovirus-expressed JMJD2C (GenBank Accession #BC143571, AA 2-372) was purchased from BPS Bioscience (Cat#50105).
The ability of test compounds to inhibit the activity of JMJD2C was determined in 384-well plate format under the following reaction conditions: 0.3 nM JMJD2C, 300 nM H3K9me3-biotin labeled peptide (Anaspec cat #64360), 2 μM alpha-ketoglutaric acid in assay buffer of 50 mM HEPES, pH7.3, 0.005% Brij35, 0.5 mM TCEP, 0.2 mg/ml BSA, 50 μM sodium L-ascorbate, and 2 μM ammonium iron(II) sulfate. Reaction product was determined quantitatively by TR-FRET after the addition of detection reagent Phycolink Streptavidin-allophycocyanin (Prozyme) and Europium-anti-di-methylated histone H3 lysine 9 (H3K9me2) antibody (PerkinElmer) in the presence of 5 mM EDTA in LANCE detection buffer (PerkinElmer) at a final concentration of 50 nM and 1 nM, respectively.
The reaction mixture was incubated at room temperature for 30 min, and terminated by the addition of 6 μl of 5 mM EDTA in LANCE detection buffer containing 100 nM Phycolink Streptavidin-allophycocyanin and 2 nM Europium-anti-H3K9me2 antibody. Plates were read by EnVisionMultilabel Reader in TR-FRET mode (excitation at 320 nm, emission at 615 nm and 665 nm) after 1 hr incubation at rt. A ratio was calculated (665/615) for each well and fitted to determine inhibition constant (IC50).

Sequence of JMJD2C (Q9H3R0 2-372): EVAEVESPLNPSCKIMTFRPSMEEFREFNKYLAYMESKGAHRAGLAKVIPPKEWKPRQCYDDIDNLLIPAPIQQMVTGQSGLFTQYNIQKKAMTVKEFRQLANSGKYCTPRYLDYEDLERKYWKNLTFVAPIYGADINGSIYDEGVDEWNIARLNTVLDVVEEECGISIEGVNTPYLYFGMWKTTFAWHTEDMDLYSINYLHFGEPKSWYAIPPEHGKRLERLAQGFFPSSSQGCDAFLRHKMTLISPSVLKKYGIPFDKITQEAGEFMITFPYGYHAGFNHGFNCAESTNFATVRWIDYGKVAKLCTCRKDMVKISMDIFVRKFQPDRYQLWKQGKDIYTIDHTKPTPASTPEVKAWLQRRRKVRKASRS

Q: How did the IC50 turn out when “3-{[(6-chloro-1,2,3,4-tetrahydronaphthalen-1-yl)methyl]amino}pyridine-4-carboxylic acid [Example 67]” was run?
A: The IC50 was 100 to 1000 nM.

Q: For “3-{[(6-chloro-1-hydroxy-1,2,3,4-tetrahydronaphthalen-1-yl)methyl]amino}pyridine-4-carboxylic acid [Example 68]”, which IC50 is on record?
A: Its IC50 is 100 to 1000 nM.

Q: How did the IC50 turn out when “3-{[(6-fluoro-3,4-dihydro-2H-chromen-4-yl)methyl]amino}-pyridine-4-carboxylic acid [Example 65]” was run?
A: The IC50 was ≤ 100 nM.
